# Measured values taken from US4322423A, “4-Phenyl-4,5,6,7-tetrahydro-thieno(2,3-C)pyridines and salts thereof” (Boehringer Ingelheim GmbH, priority 1977, dated 1982).
# Read-outs that look alike come from different tables or passages of the source.
# Legend:
# [1] = test system: uptake of noradrenaline in the neurons; assay: inhibition of noradrenaline uptake, synaptosomes from homogenized isolated cerebrum of the rat; assay type: biochemical; conditions: ten minutes at 37° C., 50% uptake inhibition, read-out: Noradrenalin inhibition IC 50
# Protocol: (§1) It is known that various forms of depressions cause in certain sections of the brain a deficiency of biogenetic amines, especially of noradrenaline and serotonine; the biogenetic amines may be multiplied by inhibiting the uptake in the neurons. […] The test is performed on the homogenized, isolated cerebrum of the rat. A suspension of synaptosomes thus obtained is incubated with […] noradrenaline or serotonine and various concentrations of a solution of the test substance in water for ten minutes at 37° C. After completion of the incubation, the medium is separated by filtering, and the radioactivity of the suspension of synaptosomes is measured. A control test without test substance is made simultaneously in order to determine the quantity of uptake of the radioactive amines. The quantity of the test substance in mols which suffices for inhibiting 50% of the uptake is designated as IC 50.
# [2] = test system: hypothermic effect caused by reserpine; assay: reserpine-antagonism, elimination of the hypothermic effect caused by reserpine; assay type: in vivo; conditions: Mus musculus, mice, oral, 17 hours after 2 mg/kg i.p. reserpine
# Protocol: A further test for determining the anti-depressant activity is the reserpine-antagonism, the elimination of the hypothermic effect caused by reserpine. The test is carried out on mice, using 5 animals per dose. 17 Hours after i.p. administration of 2 mg/kg of reserpine, the body temperature is measured peripherally at a room temperature of 19° C. Afterwards, the test substance is administered orally, and the body temperature is measured after elapse of 1, 3, 5, and 7 hours. For each measurement a medium effective dose (ED50) is determined. This is the dose at which the body temperature of the animals treated with reserpine approaches the normal temperature of the untreated controls by 50%.
# [3] = test system: uptake of serotonine in the neurons; assay: inhibition of serotonine uptake, synaptosomes from homogenized isolated cerebrum of the rat; assay type: biochemical; conditions: ten minutes at 37° C., 50% uptake inhibition, read-out: Serotinine inhibition IC 50
# Protocol: as §1
# [4] = 1 hr., read-out: Reserpine antagonism ED50 after 1 hr.
# [5] = 3 hrs., read-out: Reserpine antagonism ED50 after 3 hrs.
# [6] = 5 hrs., read-out: Reserpine antagonism ED50 after 5 hrs.
# [7] = 7 hrs., read-out: Reserpine antagonism ED50 after 7 hrs.
IC50 [1],IC50 [3],SMILES,"ED50 [2, 4]","ED50 [2, 5]","ED50 [2, 6]","ED50 [2, 7]"
0.28 µM,0.54 µM,"Cc1cc2c(s1)CN(C)CC2c1ccc(Br)cc1.Cl (stereo not drawn) [2,6-Dimethyl-4-(p-bromophenyl)-4,5,6,7-tetrahydro-thieno[2,3-c]pyridine hydrochloride]",1.7 mg/kg,2.7 mg/kg,4.6 mg/kg,80 mg/kg
0.56 µM,80 µM,"Cc1cc2c(s1)CN(C)CC2c1ccccc1.Cl (stereo not drawn) [2,6-dimethyl-4-phenyl-4,5,6,7-tetrahydro-thieno[2,3-c]pyridine hydrochloride]",19 mg/kg,25 mg/kg,80 mg/kg,80 mg/kg
1.6 µM,5.4 µM,"CN1Cc2sc(Cl)cc2C(c2ccc(Cl)cc2)C1.Cl (stereo not drawn) [2-Chloro-4-(p-chloro-phenyl)-6-methyl-4,5,6,7-tetrahydro-thieno[2,3-c]pyridine hydrochloride]",16 mg/kg,8.5 mg/kg,9.5 mg/kg,10 mg/kg
1.4 µM,> 10 µM,"CN1Cc2sc(Cl)cc2C(c2ccccc2)C1.Cl (stereo not drawn) [2-Chloro-4-phenyl-6-methyl-4,5,6,7-tetrahydro-thieno[2,3-c]pyridine hydrochloride]",13 mg/kg,30 mg/kg,90 mg/kg,90 mg/kg
1.6 µM,4.1 µM,"CN1Cc2sc(Br)cc2C(c2ccc(Br)cc2)C1 (stereo not drawn) [2-bromo-4-(p-bromophenyl)-6-methyl-4,5,6,7-tetrahydro-thieno[2,3-c]pyridine]",55 mg/kg,7.5 mg/kg,32 mg/kg,100 mg/kg
0.64 µM,9 µM,"Cc1ccc(C2CN(C)Cc3sc(Br)cc32)cc1.Cl (stereo not drawn) [2-bromo-4-(p-tolyl)-6-methyl-4,5,6,7-tetrahydro thieno[2,3-c] pyridine hydrochloride]",48 mg/kg,80 mg/kg,80 mg/kg,80 mg/kg
1 µM,3.5 µM,"CN1Cc2sc(Cl)cc2C(c2ccc(Br)cc2)C1.Cl (stereo not drawn) [2-chloro-4-(4-bromophenyl)-6-methyl-4,5,6,7-tetrahydro-thieno[2,3-c] pyridine hydrochloride]",50 mg/kg,3 mg/kg,4.2 mg/kg,38 mg/kg
0.9 µM,> 10 µM,"Cc1ccc(C2CN(C)Cc3sc(Cl)cc32)cc1.Cl (stereo not drawn) [2-chloro-4-(p-tolyl)-6-methyl-4,5,6,7-tetrahydro-thieno[2,3-c] pyridine hydrochloride]",44 mg/kg,12.5 mg/kg,18 mg/kg,20 mg/kg
